# Laboratory results taken from PubChem BioAssay (NCI).
#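 Method: 48-hour compound exposure of cells in 96-well plates, five concentrations, linear interpolation of endpoints. At the TGI there is no net growth.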
# What was measured:
# Test in all cases: NCI tumour cell line growth inhibition, 48 h
# [1] = tested on: T-47D breast
# [2] = tested on: IGROV1 ovarian
# [3] = tested on: HCT-15 colon
# [4] = tested on: NCI-H522 lung
# [5] = tested on: U251 CNS
# [6] = tested on: CCRF-CEM leukemia
# [7] = tested on: 786-0 renal
# [8] = tested on: HOP-62 NSCLC
# [9] = tested on: NCI-H460 lung
# [10] = tested on: RPMI-8226 leukemia
# [11] = tested on: RXF 393 renal
# [12] = tested on: PC-3 prostate
# [13] = tested on: HL-60(TB) leukemia
# [14] = tested on: SK-MEL-5 melanoma
# [15] = tested on: COLO 205 colon
# [16] = tested on: HS 578T breast
# [17] = tested on: HOP-92 NSCLC
# [18] = tested on: MCF7 breast
# [19] = tested on: SK-OV-3 ovarian
# [20] = tested on: SN12C renal
# [21] = tested on: KM12 colon
# [22] = tested on: TK-10 renal
# [23] = tested on: DU-145 prostate
# [24] = tested on: OVCAR-4 ovarian
# [25] = tested on: HT29 colon
# [26] = tested on: CAKI-1 renal
# [27] = tested on: OVCAR-3 ovarian
# [28] = tested on: MDA-MB-435
# [29] = tested on: SNB-19 CNS
# [30] = tested on: SF-295 CNS
# [31] = tested on: UACC-257 melanoma
# [32] = tested on: UO-31 renal
# [33] = tested on: MOLT-4 leukemia
# [34] = tested on: SW-620 colon
# [35] = tested on: OVCAR-5 ovarian
# [36] = tested on: A498 renal
# [37] = tested on: K-562 leukemia
# [38] = tested on: MDA-N
# [39] = tested on: OVCAR-8 ovarian
# [40] = tested on: SK-MEL-2 melanoma
# [41] = tested on: EKVX NSCLC
# [42] = tested on: HCT-116 colon
# [43] = tested on: NCI-H226 lung
# [44] = tested on: SK-MEL-28 melanoma
# [45] = tested on: M14 melanoma
# [46] = tested on: MDA-MB-231 breast
# [47] = tested on: ACHN renal
# [48] = tested on: A549 NSCLC
# [49] = tested on: SF-268 CNS
# [50] = tested on: BT-549 breast
# [51] = tested on: NCI/ADR-RES ovarian
# [52] = tested on: LOX IMVI melanoma
# [53] = tested on: UACC-62 melanoma
# [54] = tested on: SNB-75 CNS
# [55] = tested on: NCI-H23 lung
# [56] = tested on: MALME-3M melanoma
# [57] = tested on: SF-539 CNS
# [58] = tested on: SR leukemia
smiles,measurement,setting,value
Nc1cc2c(nc3c4ccccc4c(N)cc3[n+]2-c2cccc3ccccc23)c2ccccc12 (tested in a mixture with another compound),TGI,[1],16.1 µM
same,TGI,[2],10.7 µM
same,TGI,[3],25.9 µM
same,TGI,[4],7.77 µM
same,TGI,[5],2.61 µM
same,TGI,[6],1.31 µM
same,TGI,[7],4.22 µM
same,TGI,[8],17.2 µM
same,TGI,[9],1.58 µM
same,TGI,[10],0.851 µM
same,TGI,[11],9.33 µM
same,TGI,[12],2.9 µM
same,TGI,[13],4.53 µM
same,TGI,[14],6.17 µM
same,TGI,[15],7.14 µM
same,TGI,[16],12 µM
same,TGI,[17],8.45 µM
same,TGI,[18],3.79 µM
same,TGI,[19],17.9 µM
same,TGI,[20],13.8 µM
same,TGI,[21],9.87 µM
same,TGI,[22],4.55 µM
same,TGI,[23],15.1 µM
same,TGI,[24],15.2 µM
same,TGI,[25],10.9 µM
same,TGI,[26],14.6 µM
same,TGI,[27],4.56 µM
same,TGI,[28],3 µM
same,TGI,[29],20.2 µM
same,TGI,[30],12.4 µM
same,TGI,[31],3.51 µM
same,TGI,[32],15.2 µM
same,TGI,[33],4.04 µM
same,TGI,[34],9.18 µM
same,TGI,[35],25.2 µM
same,TGI,[36],16.9 µM
same,TGI,[37],4.17 µM
same,TGI,[38],5.27 µM
same,TGI,[39],12.8 µM
same,TGI,[40],4.28 µM
same,TGI,[41],18.6 µM
same,TGI,[42],10.7 µM
same,TGI,[43],28.7 µM
same,TGI,[44],20 µM
same,TGI,[45],6.61 µM
same,TGI,[46],2.72 µM
same,TGI,[47],9.21 µM
same,TGI,[48],13.3 µM
same,TGI,[49],18.3 µM
same,TGI,[50],16.3 µM
same,TGI,[51],22.2 µM
same,TGI,[52],7.3 µM
same,TGI,[53],21.7 µM
same,TGI,[54],10.6 µM
same,TGI,[55],4.05 µM
same,TGI,[56],4.14 µM
same,TGI,[57],23.8 µM
same,TGI,[58],3.56 µM
